Measured values taken from patent US20240124464A1, “SUBSTITUTED FUSED BICYCLIC COMPOUND AS KINASE INHIBITOR AND USE THEREOF” (IMPACT THERAPEUTICS (SHANGHAI), INC, priority 2020, published 2024).

Columns and labels:
NUAK2(h) enzyme = biological target: T1, NUAK2(h) enzyme (Homo sapiens, UniProt Q9H093); assay: In vitro NUAK2 enzymatic assay (Eurofins Discovery, [γ-33P]-ATP filter assay); type: biochemical; settings: 45 μM ATP, 40 min, room temperature; read-out: IC50, inhibitory effect on NUAK2 enzyme activity
T1 construct: purchased Eurofins Discovery
T1 sequence (Q9H093 1-628): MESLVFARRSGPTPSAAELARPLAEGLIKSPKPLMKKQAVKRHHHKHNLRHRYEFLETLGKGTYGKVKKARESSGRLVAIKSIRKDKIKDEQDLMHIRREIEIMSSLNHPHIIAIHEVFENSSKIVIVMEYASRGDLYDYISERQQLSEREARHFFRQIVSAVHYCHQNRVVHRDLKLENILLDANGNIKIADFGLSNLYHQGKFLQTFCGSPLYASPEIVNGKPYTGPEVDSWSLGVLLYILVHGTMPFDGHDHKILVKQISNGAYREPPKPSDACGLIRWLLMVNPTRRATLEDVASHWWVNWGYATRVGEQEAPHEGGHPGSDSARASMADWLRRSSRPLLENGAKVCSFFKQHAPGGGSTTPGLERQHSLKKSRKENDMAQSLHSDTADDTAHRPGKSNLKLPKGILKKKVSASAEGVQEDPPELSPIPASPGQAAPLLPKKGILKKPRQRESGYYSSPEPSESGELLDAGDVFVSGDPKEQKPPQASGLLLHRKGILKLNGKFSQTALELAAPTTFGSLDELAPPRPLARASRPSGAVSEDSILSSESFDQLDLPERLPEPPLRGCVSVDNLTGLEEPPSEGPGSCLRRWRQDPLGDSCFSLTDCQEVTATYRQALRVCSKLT
Description: In Vitro Assay to Determine the Inhibitory Effect of Compounds in the Patent on NUAK2 Enzymatic Activity
The in vitro NUAK2 enzymatic assay was carried out at Eurofins Discovery to evaluate the inhibitory effect of the compounds presented in the invention. The assay protocol is as follow: the compound to be tested was mixed with NUAK2(h) enzyme and 300 […] substrate in 8 mM MOPS (pH 7.0) buffer containing 0.2 mM EDTA. A Mg/ATP mixture containing 10 mM magnesium acetate and 45 μM [γ-33P]-ATP was added to start the reaction. After incubation for 40 min at room temperature, the reaction was terminated by adding 0.5% phosphoric acid. Then 10 μL of the reaction mix was spotted onto a P30 filter paper. The filter paper was washed four times with 0.425% phosphoric acid with 4 min for each wash, and one time with methanol. The filter paper was air-dried and counted in a liquid scintillation counter. The values obtained were plotted against the drug concentration and the IC50 was calculated.
Table 1 summarizes the inhibitory effect (IC50) of compounds on the NUAK2 enzyme activity in the present invention. ++++ indicates IC50≤10 nM; +++ indicates 10 nM<IC50≤100 nM; ++ indicates 100 nM<IC50≤1 μM; + indicates IC50>1 μM.

NUAK1(h) enzyme = biological target: T2, NUAK1(h) enzyme (Homo sapiens, UniProt O60285); assay: In vitro NUAK1 enzymatic assay (Eurofins Discovery, [γ-33P]-ATP filter assay); type: biochemical; settings: 45 μM ATP, 40 min, room temperature; read-out: IC50, inhibitory effect on NUAK1 enzyme activity
T2 construct: purchased Eurofins Discovery
T2 sequence (O60285 1-661): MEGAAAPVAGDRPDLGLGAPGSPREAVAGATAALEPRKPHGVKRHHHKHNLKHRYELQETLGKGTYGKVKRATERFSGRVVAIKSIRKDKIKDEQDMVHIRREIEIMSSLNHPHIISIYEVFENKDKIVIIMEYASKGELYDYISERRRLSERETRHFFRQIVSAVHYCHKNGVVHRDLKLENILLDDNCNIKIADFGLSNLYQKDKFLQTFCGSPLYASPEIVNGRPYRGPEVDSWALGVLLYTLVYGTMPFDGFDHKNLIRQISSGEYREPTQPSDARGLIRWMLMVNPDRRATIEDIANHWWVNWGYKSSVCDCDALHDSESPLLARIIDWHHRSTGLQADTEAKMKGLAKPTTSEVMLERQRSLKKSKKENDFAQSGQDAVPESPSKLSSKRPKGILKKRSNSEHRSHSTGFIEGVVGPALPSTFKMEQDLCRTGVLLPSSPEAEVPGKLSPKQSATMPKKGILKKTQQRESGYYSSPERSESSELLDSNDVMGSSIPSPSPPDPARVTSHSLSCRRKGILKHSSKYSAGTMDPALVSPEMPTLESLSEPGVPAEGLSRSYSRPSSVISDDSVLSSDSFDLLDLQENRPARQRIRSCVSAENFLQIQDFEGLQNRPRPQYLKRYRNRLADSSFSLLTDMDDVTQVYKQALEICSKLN
Description: In Vitro Assay to Determine the Inhibitory Effect of Compounds in the Patent on NUAK1 Enzymatic Activity
The in vitro NUAK1 enzymatic assay was carried out at Eurofins Discovery to evaluate the inhibitory effect of the compounds presented in the invention. The assay protocol is as follow: the compound to be tested was mixed with NUAK1(h) enzyme and 300 μM […] substrate in 8 mM MOPS (pH 7.0) buffer containing 0.2 mM EDTA and incubated at room temperature. A Mg/ATP mixture containing 10 mM magnesium acetate and 45 μM [y-33P]-ATP was added to start the reaction. After incubation for 40 min at room temperature, the reaction was terminated by adding 0.5% phosphoric acid. Then, 10 μL of the reaction mix was spotted onto a P30 filter paper followed with four times of wash with 0.425% phosphoric acid solution (4 min each time), and one time wash with methanol. The filter paper was air-dried and counted in a liquid scintillation counter. The values obtained were plotted against the drug concentration and the IC50 was calculated.
Table 1 summarizes the inhibitory effect (IC50) of compounds tested on the NUAK1 enzyme activity in the present invention. ++++ indicates IC50≤10 nM; […]; ++ indicates 100 nM<IC50≤1 μM; + indicates IC50>1 μM.

SMILES	IC50 (NUAK2(h) enzyme) [nM]	IC50 (NUAK1(h) enzyme) [nM]
COc1cc(N2CCN(C)CC2)ccc1Nc1ncc2c(n1)N(C1CC1)C(=O)NC2 [Example 3]	> 1000	100 to 1000
COc1cc(N2CCN(C)CC2)ccc1Nc1ncc2c(n1)N(C1CCOCC1)C(=O)NC2 [Example 33, 7-((2-methoxy-4-(4-methylpiperazin-1-yl)phenyl)amino)-1-(tetrahydro-2H-pyran-4-yl)-3,4-dihydropyrimido[4,5-d]pyrimidin-2(1H)-one]	100 to 1000	100 to 1000
COc1cc(N2CCN(C)CC2)ccc1Nc1cc2c(cn1)cc(C#N)c(=O)n2C1CCCC1 [Example 25, 1-cyclopentyl-7-((2-methoxy-4-(4-methylpiperazin-1-yl)phenyl)amino)-2-oxo-1,2-dihydro-1,6-naphthyridine-3-carbonitrile]	100 to 1000	> 1000
COc1cc(N2CCN(C)CC2)ccc1Nc1ncc2c(n1)N(C1CCCC1)C(=O)CO2 [Example 31, 8-cyclopentyl-2-((2-methoxy-4-(4-methylpiperazin-1-yl)phenyl)amino)-6H-pyrimido[5,4-b][1,4]oxazin-7(8H)-one]	100 to 1000	100 to 1000
COc1cc(N2CCN(C)CC2)ccc1Nc1ncc2cncc(C3=CCCC3)c2n1 [Example 35, 8-(cyclopent-1-en-1-yl)-N-(2-methoxy-4-(4-methylpiperazin-1-yl)phenyl)pyrido[4,3-d]pyrimidin-2-amine]	10 to 100	10 to 100
CCC(=O)Nc1cccc(Oc2nc(Nc3ccc(N4CCN(C)CC4)cc3OC)ncc2I)c1 [HTH-02-006, reference compound]	100 to 1000	10 to 100
COc1cc(N2CCN(C)CC2)ccc1Nc1ncc2cncc(C3CCCC3)c2n1 [Example 34, 8-cyclopentyl-N-(2-methoxy-4-(4-methylpiperazin-1-yl)phenyl)pyrido[4,3-d]pyrimidin-2-amine]	10 to 100	10 to 100
COc1cc(N2CCNCC2)ccc1Nc1ncc2c(C)c(C(C)=O)c(=O)n(C3CCCC3)c2n1 [Example 37, 6-acetyl-8-cyclopentyl-2-((2-methoxy-4-(piperazin-1-yl)phenyl)amino)-5-methylpyrido[2,3-d]pyrimidin-7(8H)-one]	100 to 1000	> 1000
COc1cc(N2CCN(C)CC2)ccc1Nc1ncc2c(n1)N(C1CCCC1)C(=O)N(C)C2 [Example 4, 1-cyclopentyl-7-((2-methoxy-4-(4-methylpiperazin-1-yl)phenyl)amino)-3-methyl-3,4-dihydropyrimido[4,5-d]pyrimidin-2(1H)-one]	100 to 1000	100 to 1000
COc1cc(N2CCN(C)CC2)ccc1Nc1ncc2c(C)c(C(C)=O)c(=O)n(C3CCCC3)c2n1 [Example 36, 6-acetyl-8-cyclopentyl-2-((2-methoxy-4-(4-methylpiperazin-1-yl)phenyl)amino)-5-methylpyrido[2,3-d]pyrimidin-7(8H)-one]	100 to 1000	> 1000
COc1cc(N2CCN(C)CC2)ccc1Nc1ncc2c(n1)N(C1CC1)C(=O)CC2 [Example 30]	> 1000	100 to 1000

Now from value to compound:

IC50 (NUAK2(h) enzyme) [nM]	IC50 (NUAK1(h) enzyme) [nM]	SMILES
> 1000	> 1000	CC(C)Oc1cc(N2CCN(C)CC2)ccc1Nc1ncc2cnc(=O)n(C3CCCC3)c2n1 [Example 8, 1-cyclopentyl-7-((2-isopropoxy-4-(4-methylpiperazin-1-yl)phenyl)amino)pyrimido[4,5-d]pyrimidin-2(1H)-one]
100 to 1000	> 1000	CCOc1cc(N2CCN(C)CC2)ccc1Nc1ncc2cnc(=O)n(C3CCCC3)c2n1 [Example 7, 1-cyclopentyl-7-((2-ethoxy-4-(4-methylpiperazin-1-yl)phenyl)amino)pyrimido[4,5-d]pyrimidin-2(1H)-one]
100 to 1000	100 to 1000	CN1CCN(c2ccc(Nc3ncc4cnc(=O)n(C5CCCC5)c4n3)c(Cl)c2)CC1 [Example 11, 7-((2-chloro-4-(4-methylpiperazin-1-yl)phenyl)amino)-1-cyclopentylpyrimido[4,5-d]pyrimidin-2(1H)-one]
> 1000	> 1000	COc1cc(N2CCN(C)CC2)ccc1Nc1nc(C)c2cnc(=O)n(C3CCCC3)c2n1 [Example 13, 1-cyclopentyl-7-((2-methoxy-4-(4-methylpiperazin-1-yl)phenyl)amino)-5-methylpyrimido[4,5-d]pyrimidin-2(1H)-one]
100 to 1000	100 to 1000	COc1cc(N2CCN(C)CC2)ccc1Nc1ncc2cnc(=O)n(C3CCC3)c2n1 [Example 14, 1-cyclobutyl-7-((2-methoxy-4-(4-methylpiperazin-1-yl)phenyl)amino)pyrimido[4,5-d]pyrimidin-2(1H)-one]
100 to 1000	100 to 1000	CN1CCN(c2ccc(Nc3ncc4cnc(=O)n(C5CCCC5)c4n3)c(Br)c2)CC1 [Example 12, 7-((2-bromo-4-(4-methylpiperazin-1-yl)phenyl)amino)-1-cyclopentylpyrimido[4,5-d]pyrimidin-2(1H)-one]
> 1000	100 to 1000	COc1cc(N2CCN(C)CC2)ccc1Nc1ncc2cnc(=O)n(C3CC3)c2n1 [Example 15, 1-cyclopropyl-7-((2-methoxy-4-(4-methylpiperazin-1-yl)phenyl)amino)pyrimido[4,5-d]pyrimidin-2(1H)-one]
> 1000	> 1000	CN1CCN(c2ccc(Nc3ncc4cnc(=O)n(C5CCCC5)c4n3)c(OC(F)(F)F)c2)CC1 [Example 9, 1-cyclopentyl-7-((4-(4-methylpiperazin-1-yl)-2-(trifluoromethoxy)phenyl)amino)pyrimido[4,5-d]pyrimidin-2(1H)-one]
100 to 1000	> 1000	COc1cc(N2CCN(C)CC2)ccc1Nc1ncc2cnc(=O)n(C3CCOCC3)c2n1 [Example 16, 7-((2-methoxy-4-(4-methylpiperazin-1-yl)phenyl)amino)-1-(tetrahydro-2H-pyran-4-yl)pyrimido[4,5-d]pyrimidin-2(1H)-one]
